Results from paper PMC10918664, “New Triazole-Based Potent Inhibitors of Human Factor XIIa as Anticoagulants” (ACS Omega, 2024).
Read-outs that look alike come from different tables or passages of the source.

How the values were obtained:
[1] = molecular target: T1, human FXIIa (Homo sapiens, UniProt P00748); assay: Direct inhibition of human FXIIa, chromogenic substrate hydrolysis assay; conditions: for HS (Hill slope) / ΔY (%) efficacy of inhibition: pH 7.4, 37 °C; for significant inhibitory activity against FXIIa in the screening: at 200 μM; for subclass of inhibitor based on selectivity studies: versus thrombin, FIXa, FXa, FXIa
T1 sequence (P00748 373-615 limits assumed): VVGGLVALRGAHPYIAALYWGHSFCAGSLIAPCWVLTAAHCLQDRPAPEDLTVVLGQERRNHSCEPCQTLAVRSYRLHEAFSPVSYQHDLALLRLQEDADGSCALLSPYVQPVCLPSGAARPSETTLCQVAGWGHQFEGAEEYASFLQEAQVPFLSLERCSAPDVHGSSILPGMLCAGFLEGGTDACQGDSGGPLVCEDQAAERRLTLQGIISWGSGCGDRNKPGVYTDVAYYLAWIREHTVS
T1 sequence (P00748 20-372 partner limits assumed): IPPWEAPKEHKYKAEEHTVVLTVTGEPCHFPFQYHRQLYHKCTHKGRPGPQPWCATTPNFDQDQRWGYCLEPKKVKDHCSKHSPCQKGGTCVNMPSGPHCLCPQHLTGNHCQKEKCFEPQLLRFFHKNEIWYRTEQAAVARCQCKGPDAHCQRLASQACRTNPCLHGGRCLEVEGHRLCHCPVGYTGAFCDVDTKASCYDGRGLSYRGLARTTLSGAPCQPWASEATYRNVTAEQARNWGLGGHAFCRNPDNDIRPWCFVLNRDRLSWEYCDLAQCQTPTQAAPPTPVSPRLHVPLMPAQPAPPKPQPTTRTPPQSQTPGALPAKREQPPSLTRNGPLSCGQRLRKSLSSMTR
Protocol: The slope of the resulting line corresponds to the residual enzyme activity, and the change in residual enzyme activity, relative to the concentration of the inhibitor, is plotted and fitted using the logistic eq 1. […] In this setup, each well of the 96-well microplate contained 175 μL of pH 7.4 TrisHCl buffer, to which 5 μL of potential inhibitors (or vehicle) and 5 μL of human FXIIa (stock concentration: 200 nM) were added sequentially. […] The relative residual FXIIa activity at each inhibitor concentration was computed by comparing the FXIIa activity in the absence and presence of the inhibitor. To obtain the potency (IC50) and efficacy (ΔY) of inhibition, the dose dependence of residual FXIIa activity was fitted to the logistic eq 1.

[2] = test system: human plasma; set-up: method as in PMID 36321236; conditions: previously reported inhibitor, in figure; read-out: APTT (EC×1.5); cited from earlier work
[3] = molecular target: T2, thrombin (factor IIa) (Homo sapiens, UniProt P00734); set-up: method as in PMID 36321236; conditions: previously reported inhibitor, in figure; read-out: FIIa IC50; cited from earlier work
T2 construct: The prothrombinase complex converts prothrombin (FII) to thrombin (FIIa); purchased Haematologic Technologies (Essex Junction, VT); host or cells: human plasma

[4] = molecular target: T3, FXIa (Homo sapiens, UniProt P03951); assay: Inhibition of FXIa, chromogenic substrate hydrolysis assay; type: biochemical; conditions: for IC50: pH 7.4, 37 °C; for selectivity index (IC50 enzyme/IC50 FXIIa): FXIa over FXIIa
T3 construct: purchased Haematologic Technologies (Essex Junction, VT); host or cells: human plasma
T3 sequence (P03951 388-625 limits assumed): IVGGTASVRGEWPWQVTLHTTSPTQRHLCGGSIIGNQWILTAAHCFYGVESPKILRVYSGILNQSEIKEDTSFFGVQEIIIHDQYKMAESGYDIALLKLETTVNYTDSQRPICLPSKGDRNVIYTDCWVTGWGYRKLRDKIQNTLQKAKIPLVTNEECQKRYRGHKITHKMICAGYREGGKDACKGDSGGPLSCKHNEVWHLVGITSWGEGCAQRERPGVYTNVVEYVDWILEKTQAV
T3 sequence (P03951 19-387 partner limits assumed): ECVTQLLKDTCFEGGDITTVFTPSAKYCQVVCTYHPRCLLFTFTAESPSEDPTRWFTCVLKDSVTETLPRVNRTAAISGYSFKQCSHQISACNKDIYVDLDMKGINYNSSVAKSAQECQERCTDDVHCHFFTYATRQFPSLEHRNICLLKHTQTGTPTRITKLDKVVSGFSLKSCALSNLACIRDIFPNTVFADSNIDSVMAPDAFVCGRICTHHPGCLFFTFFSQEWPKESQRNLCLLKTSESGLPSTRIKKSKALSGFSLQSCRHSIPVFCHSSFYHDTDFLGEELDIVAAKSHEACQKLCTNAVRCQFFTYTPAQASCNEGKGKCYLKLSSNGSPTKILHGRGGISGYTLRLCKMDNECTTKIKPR
Protocol: (§1) The selectivity was evaluated against thrombin and factors IXa, Xa, and XIa.
(§2) These assays were performed by using substrates and conditions appropriate for the enzyme being studied. To conduct selectivity analysis, various concentrations of the inhibitors were utilized, and the residual enzyme activity was assessed at each concentration. […] This allowed for the determination of the corresponding IC50 and efficacy of the enzyme–inhibitor complex. The KM of the chromogenic substrate with its enzyme was employed to ascertain the concentration of the chromogenic substrate used in the inhibition studies.

[5] = molecular target: T4, FIXa (Homo sapiens, UniProt P00740); assay: Inhibition of FIXa, chromogenic substrate hydrolysis assay; type: biochemical; conditions: for IC50: FIXa, pH 7.4, 37 °C
T4 construct: purchased Haematologic Technologies (Essex Junction, VT); host or cells: human plasma
T4 sequence (P00740 227-461 limits assumed): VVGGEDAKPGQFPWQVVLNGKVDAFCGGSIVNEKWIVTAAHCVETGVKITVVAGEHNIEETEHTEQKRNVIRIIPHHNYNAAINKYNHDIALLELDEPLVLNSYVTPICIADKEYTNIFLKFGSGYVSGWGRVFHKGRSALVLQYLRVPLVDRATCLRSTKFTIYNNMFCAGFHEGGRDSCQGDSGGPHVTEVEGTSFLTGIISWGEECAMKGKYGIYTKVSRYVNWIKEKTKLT
T4 sequence (P00740 47-191 partner limits assumed): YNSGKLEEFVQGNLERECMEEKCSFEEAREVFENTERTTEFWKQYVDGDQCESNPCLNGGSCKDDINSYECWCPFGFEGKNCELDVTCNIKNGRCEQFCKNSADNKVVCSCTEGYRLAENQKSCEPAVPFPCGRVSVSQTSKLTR
Protocol: as §1, §2

[6] = molecular target: T5, FXa (Homo sapiens, UniProt P00742); assay: Inhibition of FXa, chromogenic substrate hydrolysis assay; type: biochemical
T5 construct: purchased Haematologic Technologies (Essex Junction, VT); host or cells: human plasma
T5 sequence (P00742 235-488 limits assumed): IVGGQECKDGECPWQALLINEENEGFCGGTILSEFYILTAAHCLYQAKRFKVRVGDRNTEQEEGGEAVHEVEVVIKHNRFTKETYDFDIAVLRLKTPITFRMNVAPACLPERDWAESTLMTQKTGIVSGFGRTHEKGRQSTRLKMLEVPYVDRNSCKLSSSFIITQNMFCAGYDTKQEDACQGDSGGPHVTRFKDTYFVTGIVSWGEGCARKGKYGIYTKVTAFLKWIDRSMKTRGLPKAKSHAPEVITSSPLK
T5 sequence (P00742 41-179 partner limits assumed): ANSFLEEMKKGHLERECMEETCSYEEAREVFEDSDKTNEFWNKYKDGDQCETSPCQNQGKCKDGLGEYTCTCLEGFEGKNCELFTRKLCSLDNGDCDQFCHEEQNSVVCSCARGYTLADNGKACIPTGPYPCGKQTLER
Protocol: as §1, §2

[7] = molecular target: T2, thrombin (factor IIa); assay: Inhibition of thrombin, chromogenic substrate hydrolysis assay; type: biochemical; conditions: for HS (Hill slope) / ΔY (%) / IC50: thrombin; for selectivity index (IC50 enzyme/IC50 FXIIa): thrombin over FXIIa; for IC50: pH 7.4, 37 °C
Protocol: as §1, §2

[8] = test system: human plasma; assay: Activated partial thromboplastin time (APTT) clotting assay; type: biochemical
Protocol: The APTT assay is employed to assess the impact of a new potential anticoagulant on clotting driven by the contact/intrinsic pathway, involving FIXa, FXIa, and FXIIa. Conversely, the PT assay is utilized to gauge the impact of the new potential anticoagulant on the extrinsic pathway of coagulation, which includes FVIIa. […] In the PT assay, thromboplastin-D was created by adding 4 mL of distilled water, and the resulting mixture was warmed to 37 °C. […] Upon the addition of 200 μL of prewarmed thromboplastin-D reagent, the clotting time was recorded. In the APTT assay, 90 μL of citrated human plasma was combined with 10 μL of the molecule of interest (or the vehicle) and 100 μL of prewarmed 0.2% ellagic acid. Following a 4 min incubation at 37 °C, clotting was initiated by introducing 100 μL of prewarmed 0.025 M CaCl2, and the clotting time was recorded. In both assays, approximately nine or more concentrations of molecules were employed to generate concentration vs effect profiles. The data were then plotted against a quadratic trendline, enabling the estimation of the concentration required to double the clotting time. Clotting times were similarly measured using 10 μL of highly purified water (negative control). The positive controls used in APTT and PT assays were (1) UFH, antithrombin activator; (2) argatroban, a clinically used thrombin inhibitor; (3) rivaroxaban, a clinically used FXa inhibitor; and (4) C6B7, a monoclonal antibody FXIIa inhibitor.

[9] = test system: human plasma; assay: Prothrombin time (PT) clotting assay; type: biochemical; conditions: highest concentration of 2500 μM
Protocol: The APTT assay is employed to assess the impact of a new potential anticoagulant on clotting driven by the contact/intrinsic pathway, involving FIXa, FXIa, and FXIIa. Conversely, the PT assay is utilized to gauge the impact of the new potential anticoagulant on the extrinsic pathway of coagulation, which includes FVIIa. […] In the PT assay, thromboplastin-D was created by adding 4 mL of distilled water, and the resulting mixture was warmed to 37 °C. […] Upon the addition of 200 μL of prewarmed thromboplastin-D reagent, the clotting time was recorded. In the APTT assay, 90 μL of citrated human plasma was combined with 10 μL of the molecule of interest (or the vehicle) and 100 μL of prewarmed 0.2% ellagic acid. Following a 4 min incubation at 37 °C, clotting was initiated by introducing 100 μL of prewarmed 0.025 M CaCl2, and the clotting time was recorded. In both assays, approximately nine or more concentrations of molecules were employed to generate concentration vs effect profiles. The data were then plotted against a quadratic trendline, enabling the estimation of the concentration required to double the clotting time. Clotting times were similarly measured using 10 μL of highly purified water (negative control). […]

[10] = human FXIIa, Tris–HCl buffer pH 7.4, 37 °C

Compound | HS (Hill slope) ([1]; human FXIIa) | ΔY (%) efficacy of inhibition ([1]; human FXIIa) [%] | IC50 [1] [µM] | IC50 ([4]; FXIa) [µM] | HS (Hill slope) [7] | ΔY (%) [7] [%] | IC50 [7] [µM] | other results
COC(=O)c1nc(N)n(C(=O)c2cc(OC)c(OC)c(OC)c2)n1 [compound 8] | 1.1 ± 0.1 | 100 ± 2 | 0.045 ± 0.003 | 14.9 ± 1.4 | 0.9 ± 0.2 | 102.0 ± 4.5 | 0.019 ± 0.004 | HS (Hill slope) ([6]; FXa): 1.2 ± 0.2; ΔY (%) ([6]; FXa): 100.8 ± 2.7%; selectivity index (IC50 enzyme/IC50 FXIIa) ([6]; FXa over FXIIa): 1057.78; IC50 ([6]; FXa, pH 7.4, 37 °C): 47.6 ± 5.8 µM; HS (Hill slope) ([4]; FXIa): 0.9 ± 0.1; ΔY (%) ([4]; FXIa): 100.3 ± 3.1%; selectivity index (IC50 enzyme/IC50 FXIIa) [4]: 331.11; selectivity index (IC50 enzyme/IC50 FXIIa) [7]: 0.42; selectivity index (IC50 enzyme/IC50 FXIIa) ([5]; FIXa over FXIIa): >4000; IC50 [5]: > 180 µM; fold increased potency regarding the effect on APTT ([8]; relative to RA): ~6 fold
Cc1ccc(S(=O)(=O)n2cnc([N+](=O)[O-])n2)cc1 [compound 12] |  |  |  |  |  |  |  | significant inhibitory activity against FXIIa in the screening [1]: none
O=C(O)c1nc(NS(=O)(=O)c2ccccc2[N+](=O)[O-])n[nH]1 [compound 13] |  |  |  |  |  |  |  | significant inhibitory activity against FXIIa in the screening [1]: none; effect on PT [9]: did not affect; effect on APTT ([8]; highest concentration of 2500 μM): did not affect
O=C(O)c1ncn(-c2ccccc2)n1 [compound 14] |  |  |  |  |  |  |  | significant inhibitory activity against FXIIa in the screening [1]: none
O=C(O)Cc1nc(-c2ccccc2)n[nH]1 [compound 15] |  |  |  |  |  |  |  | significant inhibitory activity against FXIIa in the screening [1]: none
COC(=O)c1nc(N)n(C(=O)c2ccccc2Br)n1 [compound 20] | 0.8 ± 0.1 | 76 ± 5 | 0.08 ± 0.01 | > 50 | 0.9 ± 0.1 | 113 ± 8 | 0.09 ± 0.02 | subclass of inhibitor based on selectivity studies [1]: dual inhibitors of FXIIa as well as thrombin; selectivity index (IC50 enzyme/IC50 FXIIa) [4]: >625; selectivity index (IC50 enzyme/IC50 FXIIa) [7]: 1.13
COC(=O)c1nc(N)n(C(=O)c2ccc(Br)cc2)n1 [compound 21] | 0.5 ± 0.02 | 109 ± 2 | 0.9 ± 0.1 | > 50 | 0.5 ± 0.02 | 112 ± 10 | 0.9 ± 0.2 | fold decrease in FXIIa inhibition potency ([1]; relative to inhibitor 20 (bromine ortho to para)): ~11.3 fold; subclass of inhibitor based on selectivity studies [1]: dual inhibitors of FXIIa as well as thrombin; selectivity index (IC50 enzyme/IC50 FXIIa) [4]: >55.56; selectivity index (IC50 enzyme/IC50 FXIIa) [7]: 1.00
COC(=O)c1nc(N)n(C(=O)c2ccc(F)cc2)n1 [compound 22] | 0.8 ± 0.1 | 74 ± 7 | 0.032 ± 0.008 | > 50 | 1.2 ± 0.2 | 118 ± 7 | 0.3 ± 0.05 | IC50 [1, 10]: 0.032 ± 0.008 µM; fold increase in FXIIa inhibition potency ([1]; relative to inhibitor 9): 7.5 fold; fold more potent FXIIa inhibitor ([1]; than inhibitor RA): 3.4 fold; subclass of inhibitor based on selectivity studies [1]: more specific inhibitors of FXIIa; selectivity index (IC50 enzyme/IC50 FXIIa) [4]: >1562.50; selectivity index (IC50 enzyme/IC50 FXIIa) [7]: 9.38; EC50 ([8]; human plasma, read-out: APTT (EC×1.5), effective concentration to double the clotting time): 25 to 75 µM
COc1cc(OC)cc(C(=O)n2cnnc2N)c1 [compound 30] |  |  |  |  | 1.0 ± 0.3 | 53 ± 16 | 0.25 ± 0.14 | 
CCOC(=O)c1nc(N)n(C(=O)c2ccccc2)n1 [compound 31] | 0.9 ± 0.1 | 91 ± 9 | 7.9 |  |  |  |  | 
COC(=O)c1nc(N)n(C(C)=O)n1 [compound 32] | 0.9 ± 0.2 | 67 ± 8 | 6.3 |  |  |  |  | 

Further lines, with some results ahead:

HS (Hill slope) ([1]; human FXIIa) | ΔY (%) efficacy of inhibition ([1]; human FXIIa) [%] | IC50 [1] [µM] | IC50 ([4]; FXIa) [µM] | HS (Hill slope) [7] | ΔY (%) [7] [%] | IC50 [7] [µM] | Compound | other results
1.7 ± 0.4 | 105 ± 8 |  |  |  |  |  | COC(=O)c1nc(N)n(C(=O)c2ccc(C(C)(C)C)cc2)n1 [RA, reference compound] | IC50 [1, 10]: 0.11 ± 0.01 µM; EC50 [2]: 340 µM; IC50 [3]: 0.235 µM
 |  | 1.7 | 25.9 ± 4.4 |  |  |  | COC(=O)c1nc(N)n(C(=O)c2ccccc2Cl)n1 [compound 7] | IC50 [5]: > 200 µM
1.1 ± 0.1 | 92 ± 3 |  | > 50 | 1.1 ± 0.2 | 89 ± 5 | 0.054 ± 0.008 | COC(=O)c1nc(N)n(C(=O)c2ccccc2)n1 [compound 9] | IC50 ([1]; human FXIIa): 0.24 ± 0.01 µM; selectivity index (IC50 enzyme/IC50 FXIIa) [7]: 0.23
1.4 ± 0.7 | 82 ± 8 |  |  |  |  |  | CC(C)(C)c1ccc(C(=O)n2ncnc2N)cc1 [compound 10] | IC50 ([1]; FXIIa, summary picture in supplement): 8.5 µM; IC50 [1, 10]: 8.5 ± 1.2 µM; fold less potent FXIIa inhibitor ([1]; than inhibitor RA): 77.3 fold
0.8 ± 0.1 | 102 ± 5 | 7.8 |  |  |  |  | COC(=O)c1nc(N)n(C(=O)c2ccc(Cl)cc2)n1 [compound 19] | fold decrease in FXIIa inhibition potency ([1]; relative to inhibitor 7 (chlorine ortho to para)): ~4.6 fold
 |  |  | > 50 |  |  |  | Cc1cccc(C(=O)n2cnnc2N)c1 [compound 24] | inhibition at 50 µM ([7]; read-out: inhibition of thrombin at 50 μM): 43%
 |  |  |  |  |  | > 50 | Cc1cc(C)cc(C(=O)n2cnnc2N)c1 [compound 26] | 
